Patent EP1034782A1, “Treatment of depression by using compounds which elevate the intracellular sodium concentration” (Singer, Andrea, priority 1999, dated 2000)

Tests used:
serotonin transporter [1] = biological target: T1, serotonin transporter (Mus musculus, UniProt Q60857); assay: ^3H-paroxetine binding assay (mouse frontal cortex membranes)
T1 construct: from tissue; host or cells: frontal cortex of female NMRI mice (synaptosomes or membranes)
Protocol: Female NMRI mice were sacrified by decapitation. […] The homogenate was centrifuged for 10 min at 35000 x g at 4°C. The resulting pellet was resuspended in 40 volumes of buffer and recentrifuged. The pellet was resuspended in TRIS buffer at a protein concentration of 70 µg/ml. Aliquots of membrane suspension were incubated with ^3H-paroxetine (0.2 nM) at room temperature for 60 minutes. Incubation was terminated by rapid filtration through Whatman GF/B glass fiber filters with a Brandel Cell Harvester. […] The filters were washed 7 times with ice cold buffer, dried and the radioactivity was measured by liquid scintillation spectrometry.

serotonin transporter [2] = biological target: T1, serotonin transporter; assay: Synaptosomal uptake of ^3H-serotonin (mouse cortex synaptosomes); assay type: cell-based
Protocol: Synaptosomal preparations from frontal cortex of female NMRI mice were used for serotonin uptake. The tissue was homogenized in ice cold sucrose solution (0.32 M) and diluted with 10 ml of the homogenizing medium. The nuclear fraction was eliminated by centrifugation at 750 x g for 10 min (Beckman Centrifuge, Model J2-21). […] The probes were cooled, immediately filtered through Whatman GF/B glass fiber filters and washed three times with ice cold buffer solution with a Brandel cell harvester. Filters were placed in plastic scintillation vials containing 4 ml Lumasafe scintillation cocktail (Packard). Radioactivity was measured after 12 hours. Nonspecific uptake was determined in parallel probes maintained throughout on ice or containing unlabelled serotonin (1mM serotonin).

serotonin transporter [3] = biological target: T1, serotonin transporter; assay: Kinetic analyses of ^3H-serotonin uptake into mouse cortex synaptosomes; assay type: cell-based; details: hyperforin 2 µM, citalopram 1 nM, monensin concentration not given in the text
[4] = biological target: T2, human serotonin transporter (Homo sapiens, UniProt P31645); assay: ^3H-serotonin uptake in platelets; assay type: cell-based
T2 construct: Blood from normal unmedicated volunteers was anticoagulated; endogenous in cells; host or cells: human platelets from blood of unmedicated volunteers

human platelets = assay: Measuring [Na^+]i with SBFI/AM fluorescence in platelets; assay type: cell-based; details: for [Na^+]i elevated from basal levels up to: highest concentration investigated: 50 µM hyperforin, 10 µM monensin, platelets, SBFI fluorescence
Protocol: Solutions: The Na^+-HEPES buffer consisted 10 mM HEPES, 1 mM MgSO4, 5 mM KH2PO4, 5 mM KCI and 5 mM Glucose (4). The pH of this buffer was adjusted to 6.5 with NH3 (for storage of platelets) and to 7.4 for the measurement of fluorescence. The K^+ solution was identical except for complete replacement of sodium by potassium.
Preparation of platelets and loading with SBFI/AM: Venous blood (10 ml) was anticoagulated by mixing it with 1.0 ml citrate solution in a S-Monovette. […] Platelet pellets were obtained from PRP by centifugation at 480 x g for 30 min at room temperature. The pellet was resuspended into Sodium-HEPES buffer, pH 6.5 at a final concentration of 3-4 x 10^8 cells/ml. […] Appropriate amounts of this solution were added to the platelets to yield a final concentration of SBFI/AM of 10 µM and platelets were incubated with the dye for 60 min at 37°C in a shaking water bath. Thereafter, platelets were again centrifuged at 480 x g for 30 min at RT. The supernatant was discarded and the platelets were taken up into sodium-HEPES buffer, pH 6.5 at a concentration of 3-4 x 10^9 cells/ml. The platelet suspension was then stored at RT until used for the fluorescence measurements.
Measurement of SBFI/AM Fluorescence: Aliquots of platelet suspension (4 µl) were added to 950 µl of the appropriate buffer. Fluorescence was measured in quartz cuvettes using a SLM-Aminco luminescence spectrometer before and after addition of the tested drugs. […] All measurements were performed without stirring at room temperature.

norepinephrine = assay: Synaptosomal uptake of norepinephrine; assay type: cell-based; details: unpublished observations
dopamine = assay: Synaptosomal uptake of dopamine; assay type: cell-based; details: unpublished observations
GABA = assay: Synaptosomal uptake of GABA; assay type: cell-based; details: unpublished observations
L-glutamate = assay: Synaptosomal uptake of L-glutamate; assay type: cell-based; details: unpublished observations

T1 sequence (Q60857 whole entry): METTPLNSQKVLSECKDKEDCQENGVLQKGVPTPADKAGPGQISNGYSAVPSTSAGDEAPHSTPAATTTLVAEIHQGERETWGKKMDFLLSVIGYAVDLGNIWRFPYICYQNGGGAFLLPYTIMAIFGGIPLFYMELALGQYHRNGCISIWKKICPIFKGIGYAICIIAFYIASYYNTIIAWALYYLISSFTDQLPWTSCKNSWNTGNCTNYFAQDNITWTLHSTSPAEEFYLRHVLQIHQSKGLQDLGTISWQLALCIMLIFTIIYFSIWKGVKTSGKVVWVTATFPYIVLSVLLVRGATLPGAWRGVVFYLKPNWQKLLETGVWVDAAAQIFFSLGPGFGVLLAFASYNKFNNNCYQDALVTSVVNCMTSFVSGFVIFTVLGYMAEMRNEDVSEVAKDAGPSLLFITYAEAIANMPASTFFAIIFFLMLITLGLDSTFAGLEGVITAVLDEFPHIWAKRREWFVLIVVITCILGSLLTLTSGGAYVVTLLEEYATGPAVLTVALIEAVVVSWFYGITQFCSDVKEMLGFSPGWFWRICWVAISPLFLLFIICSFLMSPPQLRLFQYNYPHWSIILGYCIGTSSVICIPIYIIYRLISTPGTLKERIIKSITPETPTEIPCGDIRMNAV
T2 sequence (P31645 whole entry): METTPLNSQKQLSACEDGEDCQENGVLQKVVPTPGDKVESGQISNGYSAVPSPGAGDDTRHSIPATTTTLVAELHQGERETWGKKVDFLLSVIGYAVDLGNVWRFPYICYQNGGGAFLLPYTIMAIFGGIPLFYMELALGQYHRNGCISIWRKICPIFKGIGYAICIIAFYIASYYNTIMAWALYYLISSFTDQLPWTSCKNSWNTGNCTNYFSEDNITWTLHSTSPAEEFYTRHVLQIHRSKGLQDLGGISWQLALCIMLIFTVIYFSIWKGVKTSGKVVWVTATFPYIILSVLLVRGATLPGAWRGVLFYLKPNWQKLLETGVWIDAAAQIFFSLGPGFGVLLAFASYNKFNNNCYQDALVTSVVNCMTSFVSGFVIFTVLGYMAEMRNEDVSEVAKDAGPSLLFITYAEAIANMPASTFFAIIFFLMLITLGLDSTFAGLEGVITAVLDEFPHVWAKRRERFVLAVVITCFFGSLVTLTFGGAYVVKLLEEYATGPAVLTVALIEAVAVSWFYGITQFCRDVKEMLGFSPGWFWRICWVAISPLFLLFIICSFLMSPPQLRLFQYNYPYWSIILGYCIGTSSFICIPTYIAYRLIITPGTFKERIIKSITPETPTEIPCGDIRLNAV

| Structure (SMILES) | IC50 (serotonin transporter [1]) [µM] | IC50 (serotonin transporter [2]) [µM] | Vmax (serotonin transporter [3]) | IC50 ([4]; inhibition of ^3H-serotonin uptake into human platelets, Table 3) [µM] | inhibition at 0.5 µM ([4]; monensin 500 nM, human platelets) [%] | [Na^+]i elevated from basal levels up to (human platelets) | incubation time to equilibration of [Na^+]i elevation (human platelets; monensin, human platelets) [min] | IC50 synaptosomal uptake of norepinephrine (norepinephrine) | IC50 synaptosomal uptake of dopamine (dopamine) | IC50 synaptosomal uptake of GABA (GABA) | IC50 synaptosomal uptake of L-glutamate (L-glutamate) | Maximal elevation of [Na^+]i (human platelets; 50 µM hyperforin, human platelets) | incubation time to maximal effect on [Na^+]i (human platelets; hyperforin, human platelets) [min] |
| --- | --- | --- | --- | --- | --- | --- | --- | --- | --- | --- | --- | --- | --- |
| CC[C@@]1([C@@H]2O[C@@H]([C@H]3O[C@@](O)(CO)[C@H](C)C[C@@H]3C)C[C@@H]2C)CC[C@H]([C@]2(C)CC[C@]3(C[C@H](O)[C@@H](C)[C@@H]([C@@H](C)[C@@H](OC)[C@H](C)C(=O)O)O3)O2)O1 [Monensin] | > 1 | 0.0478 | 0,065 ± 0,009 pM/min/mg protein | 0.159 | ~70 | 140,0 ± 9,1 mM | 15 | nanomolar range | nanomolar range | nanomolar range | nanomolar range |  |  |
| CC(C)=CCCC1(C)C(CC=C(C)C)CC2(CC=C(C)C)C(=O)C(CC=C(C)C)=C(O)C1(C(=O)C(C)C)C2=O (centres unmarked) [Hyperforin] |  |  |  |  |  | 69,0 ± 16,1 mM |  |  |  |  |  | about 70 mM | ≤ 15 |
